# Legend:
# [1] = test system: female house flies (resistant); experiment: Level II topical test, house flies; type: in vivo, Musca domestica Linnaeus; details: HF (female, resistant), one microgram topically per insect; for % Knockdown: 10 minutes; for mortality at 0.001 mg: Musca domestica, topical, read-out: % Kill
# Description: (§1) e. Insecticidal Activity Against House Flies and German Cockroaches
# In a Level II test the compounds of this invention were tested for insecticidal activity against female house flies (resistant) and male German cockroaches. Ten insects were anesthetized with carbon dioxide and placed in a container for about 2 hours, during which time the insects recovered to normal activity. The container confining the insects is fitted with a plunger which is used to force the insects against a nylon mesh at one end of the container. One microliter of an acetone solution containing one microgram of the candidate insecticide was applied topically to each insect. The plunger was withdrawn and the insects were allowed to move freely about the container. Knockdown counts were recorded 10 minutes after treatment of house flies and 30 minutes after treatment of cockroaches.
# twospotted spider mite [2] = experiment: Initial insecticidal activity, twospotted spider mite; type: in vivo, Tetranychus urticae Koch; details: Tetranychus urticae, 48-hour exposure, read-out: % Kill, Twospotted Spider Mite
# Text: (§2) a. Initial Insecticidal Activity
# (§3) In this test, a candidate insecticide, in solution, is applied to either infested or uninfested plants or containers by spraying or dipping. (The preferred test procedure varies with insect species. The dipping method is better than the spraying method, and vice versa, for certain species of insects. Also some species are better adapted to the test by infesting after the chemical treatment rather than before.) Once the tests have been established, a 48-hour exposure period is observed before reading the tests. Insect species included in these tests are Mexican bean beetle (Epilachna varivestis Mulsant), pea aphid [Acyrthosiphon pisum (Harris)], southern armyworm [Spodoptera eridania (Cramer)], twospotted spider mite (Tetranychus urticae Koch), large milkweed bug [Oncopeltus fasciatus (Dallas)], plum curculio [Conotrachelus nenuphar (Herbst)], confused flour beetle (Tribolium confusum Jacquelin duVal) and granary weevil [Sitophilus granarius (Linnaeus)]. Test results are set forth in Table I. A control sample, comprising the solution without the candidate insecticide, is also included.
# German cockroaches = experiment: Level I immersion test, German cockroaches; type: in vivo, Blattella germanica (Linnaeus); details: GC (male), 5 mg/milliliter; for mortality at 5000 µg/mL: Blattella germanica, 18-24 hours, read-out: % Kill; for % Knockdown: 30 minutes after immersion
# Description: as §1
# (§4) Compounds of this invention were tested in a Level I test at 5 mg. of active compounds/milliliter of a solution of 40% acetone -- 60% water.
# (§5) In this test a group of ten house flies (Musca domestica Linnaeus) were completely immersed in 25 ml. of the insecticidal test solution. After 10 seconds of immersion, the test solution is removed. The house flies are then transferred to holding cages lines with paper toweling. In the case of the house flies, the knockdown counts were recorded 10 minutes after termination of the immersion. The percent kill was recorded after 18-24 hours.
# The same Level I test technique was employed using male German cockroaches [Blattella germanica (Linnaeus)]. In this case, the knockdown counts were recorded 30 minutes after the termination of the immersion.
# twospotted spider mite [3] = experiment: Seven-day residual insecticidal activity, twospotted spider mite; type: in vivo, Tetranychus urticae Koch; details: Tetranychus urticae, 48-hour exposure, read-out: % Kill, Twospotted Spider Mite
# Text: (§6) b. Seven-Day Residual Insecticidal Activity
# (§7) In this test, a candidate insecticide, in solution, is applied to uninfested plants or containers by dipping or spraying. A seven-day holding period is necessary before infestation. A 48-hour exposure period is observed before evaluation of the tests. The insect species used in this type of test are the same as those listed under initial activity.
# pea aphid [4] = experiment: Initial insecticidal activity, pea aphid; type: in vivo, Acyrthosiphon pisum (Harris); details: Acyrthosiphon pisum, 48-hour exposure, read-out: % Kill, Pea Aphid
# Text: as §2, §3
# house flies = experiment: Level I immersion test, house flies; type: in vivo, Musca domestica Linnaeus; details: HF, 5 mg/milliliter; for % Knockdown: 10 minutes after immersion; for mortality at 5000 µg/mL: Musca domestica, after 18-24 hours, read-out: % Kill
# Description: as §1, §4, §5
# Mexican bean beetle [5] = experiment: Seven-day residual insecticidal activity, Mexican bean beetle; type: in vivo, Epilachna varivestis Mulsant; details: Epilachna varivestis, 48-hour exposure, read-out: % Kill, Mexican Bean Beetle
# Text: as §6, §7
# confused flour beetle [6] = experiment: Seven-day residual insecticidal activity, confused flour beetle; type: in vivo, Tribolium confusum Jacquelin duVal; details: Tribolium confusum, 48-hour exposure, read-out: % Kill, Confused Flour Beetle
# Text: as §6, §7
# southern armyworm [7] = experiment: Systemic insecticidal activity (soil/water), southern armyworm; type: in vivo, Spodoptera eridania (Cramer); details: Spodoptera eridania, 48-hour exposure, read-out: % Kill, Southern Armyworm
# Description: (§8) c. Systemic Insecticidal Acitivity (Soil/Water)
# (§9) In this test, a candidate insecticide, in solution, is added to the soil of either uninfested pinto bean seedlings (Phaseolus vulgaris) or uninfested broad bean seedlings (Vicia faba var. Windsor). The plant species used depend on the insect species in the test. Usually, a 72-hour translocation period before infestation is required, followed by a 48-hour exposure period, before evaluation of the tests. The insect species used in the systemic tests are Mexican bean beetle, southern armyworm, pea aphid, and twospotted spider mite.
# pea aphid [8] = experiment: Systemic insecticidal activity (soil/water), pea aphid; type: in vivo, Acyrthosiphon pisum (Harris); details: Acyrthosiphon pisum, 48-hour exposure, read-out: % Kill, Pea Aphid
# Description: as §8, §9
# confused flour beetle [9] = experiment: Initial insecticidal activity, confused flour beetle; type: in vivo, Tribolium confusum Jacquelin duVal; details: Tribolium confusum, 48-hour exposure, read-out: % Kill, Confused Flour Beetle
# Text: as §2, §3
# southern armyworm [10] = experiment: Seven-day residual insecticidal activity, southern armyworm; type: in vivo, Spodoptera eridania (Cramer); details: Spodoptera eridania, 48-hour exposure, read-out: % Kill, Southern Armyworm
# Text: as §6, §7
# large milkweed bug = experiment: Seven-day residual insecticidal activity, milkweed bug; type: in vivo, Oncopeltus fasciatus (Dallas); details: Oncopeltus fasciatus, 48-hour exposure, read-out: % Kill, Milkweed Bug
# Text: as §6, §7
# Mexican bean beetle [11] = experiment: Systemic insecticidal activity (soil/water), Mexican bean beetle; type: in vivo, Epilachna varivestis Mulsant; details: Epilachna varivestis, 48-hour exposure, read-out: % Kill, Mexican Bean Beetle
# Description: as §8, §9
# Mexican bean beetle [12] = experiment: Initial insecticidal activity, Mexican bean beetle; type: in vivo, Epilachna varivestis Mulsant; details: Epilachna varivestis, 48-hour exposure, read-out: % Kill, Mexican Bean Beetle
# Text: as §2, §3
# pea aphid [13] = experiment: Seven-day residual insecticidal activity, pea aphid; type: in vivo, Acyrthosiphon pisum (Harris); details: Acyrthosiphon pisum, 48-hour exposure, read-out: % Kill, Pea Aphid
# Text: as §6, §7
# twospotted spider mite [14] = experiment: Systemic insecticidal activity (soil/water), twospotted spider mite; type: in vivo, Tetranychus urticae Koch; details: Tetranychus urticae, 48-hour exposure, read-out: % Kill, Twospotted Spider Mite
# Description: as §8, §9
smiles,measurement,setting,value
"CC(C)OP(=O)(OC(C)C)N(C)SN(C)C(=O)Oc1cccc2c1OC(C)(C)C2 [6(c), 2,3-Dihydro-2,2-dimethyl-7-benzofuranyl [(N-diisopropoxyphosphinyl) (N-methyl)aminosulfenyl][methyl]carbamate]",% Knockdown,[1],0%
same,mortality at 0.001 mg,[1],27%
same,mortality at 39 ppm,twospotted spider mite [2],6%
same,mortality at 156 ppm,twospotted spider mite [2],23%
same,mortality at 1250 ppm,twospotted spider mite [2],100%
same,mortality at 5000 µg/mL,German cockroaches,100%
same,% Knockdown,German cockroaches,100%
same,mortality at 39 ppm,twospotted spider mite [3],0%
same,mortality at 156 ppm,twospotted spider mite [3],1%
same,mortality at 1250 ppm,twospotted spider mite [3],0%
same,mortality at 39 ppm,pea aphid [4],28%
same,mortality at 156 ppm,pea aphid [4],60%
same,mortality at 1250 ppm,pea aphid [4],100%
same,% Knockdown,house flies,100%
same,mortality at 5000 µg/mL,house flies,100%
same,mortality at 39 ppm,Mexican bean beetle [5],6%
same,mortality at 156 ppm,Mexican bean beetle [5],38%
same,mortality at 1250 ppm,Mexican bean beetle [5],100%
same,mortality at 39 ppm,confused flour beetle [6],0%
same,mortality at 156 ppm,confused flour beetle [6],0%
same,mortality at 1250 ppm,confused flour beetle [6],0%
same,mortality at 39 ppm,southern armyworm [7],28%
same,mortality at 156 ppm,southern armyworm [7],100%
same,mortality at 39 ppm,pea aphid [8],100%
same,mortality at 156 ppm,pea aphid [8],100%
same,mortality at 39 ppm,confused flour beetle [9],0%
same,mortality at 156 ppm,confused flour beetle [9],0%
same,mortality at 1250 ppm,confused flour beetle [9],18%
same,mortality at 39 ppm,southern armyworm [10],0%
same,mortality at 156 ppm,southern armyworm [10],0%
same,mortality at 1250 ppm,southern armyworm [10],7%
same,mortality at 39 ppm,large milkweed bug,5%
same,mortality at 156 ppm,large milkweed bug,25%
same,mortality at 1250 ppm,large milkweed bug,100%
same,mortality at 39 ppm,Mexican bean beetle [11],100%
same,mortality at 156 ppm,Mexican bean beetle [11],100%
same,mortality at 39 ppm,Mexican bean beetle [12],100%
same,mortality at 156 ppm,Mexican bean beetle [12],94%
same,mortality at 1250 ppm,Mexican bean beetle [12],100%
same,mortality at 39 ppm,pea aphid [13],0%
same,mortality at 156 ppm,pea aphid [13],0%
same,mortality at 1250 ppm,pea aphid [13],5%
same,mortality at 39 ppm,twospotted spider mite [14],4%
same,mortality at 156 ppm,twospotted spider mite [14],19%
"CCN(SN(C)C(=O)Oc1cccc2c1OC(C)(C)C2)P(=O)(OC)OC [5(c), 2,3-dihydro-2,2-dimethyl-7-benzofuranyl [(N-dimethoxyphosphinyl) (N-ethyl)aminosulfenyl][methyl]carbamate]",% Knockdown,[1],0%
same,mortality at 0.001 mg,[1],38%
same,mortality at 39 ppm,twospotted spider mite [2],6%
same,mortality at 156 ppm,twospotted spider mite [2],47%
same,mortality at 1250 ppm,twospotted spider mite [2],100%
same,mortality at 5000 µg/mL,German cockroaches,100%
same,% Knockdown,German cockroaches,100%
same,mortality at 39 ppm,twospotted spider mite [3],2%
same,mortality at 156 ppm,twospotted spider mite [3],0%
same,mortality at 1250 ppm,twospotted spider mite [3],2%
same,mortality at 39 ppm,pea aphid [4],0%
same,mortality at 156 ppm,pea aphid [4],100%
same,mortality at 1250 ppm,pea aphid [4],100%
same,% Knockdown,house flies,100%
same,mortality at 5000 µg/mL,house flies,100%
same,mortality at 39 ppm,Mexican bean beetle [5],6%
same,mortality at 156 ppm,Mexican bean beetle [5],70%
same,mortality at 1250 ppm,Mexican bean beetle [5],100%
same,mortality at 39 ppm,confused flour beetle [6],0%
same,mortality at 156 ppm,confused flour beetle [6],0%
same,mortality at 1250 ppm,confused flour beetle [6],0%
same,mortality at 39 ppm,southern armyworm [7],60%
same,mortality at 156 ppm,southern armyworm [7],100%
same,mortality at 39 ppm,pea aphid [8],0%
same,mortality at 156 ppm,pea aphid [8],100%
same,mortality at 39 ppm,confused flour beetle [9],0%
same,mortality at 156 ppm,confused flour beetle [9],0%
same,mortality at 1250 ppm,confused flour beetle [9],78%
same,mortality at 39 ppm,southern armyworm [10],0%
same,mortality at 156 ppm,southern armyworm [10],0%
same,mortality at 1250 ppm,southern armyworm [10],61%
same,mortality at 39 ppm,large milkweed bug,0%
same,mortality at 156 ppm,large milkweed bug,100%
same,mortality at 1250 ppm,large milkweed bug,100%
same,mortality at 39 ppm,Mexican bean beetle [11],100%
same,mortality at 156 ppm,Mexican bean beetle [11],100%
same,mortality at 39 ppm,Mexican bean beetle [12],78%
same,mortality at 156 ppm,Mexican bean beetle [12],100%
same,mortality at 1250 ppm,Mexican bean beetle [12],100%
same,mortality at 39 ppm,pea aphid [13],0%
same,mortality at 156 ppm,pea aphid [13],0%
same,mortality at 1250 ppm,pea aphid [13],62%
same,mortality at 39 ppm,twospotted spider mite [14],7%
same,mortality at 156 ppm,twospotted spider mite [14],24%
CCCN(SN(C)C(=O)Oc1cccc2c1OC(C)(C)C2)P(=O)(Oc1ccccc1)Oc1ccccc1 [7(c)],mortality at 39 ppm,twospotted spider mite [2],1%
same,mortality at 156 ppm,twospotted spider mite [2],6%
same,mortality at 1250 ppm,twospotted spider mite [2],5%
same,mortality at 5000 µg/mL,German cockroaches,0%
same,% Knockdown,German cockroaches,0%
same,mortality at 39 ppm,twospotted spider mite [3],1%
same,mortality at 156 ppm,twospotted spider mite [3],0%
same,mortality at 1250 ppm,twospotted spider mite [3],0%
same,mortality at 39 ppm,pea aphid [4],11%
same,mortality at 156 ppm,pea aphid [4],0%
same,mortality at 1250 ppm,pea aphid [4],0%
same,% Knockdown,house flies,40%
same,mortality at 5000 µg/mL,house flies,0%
same,mortality at 39 ppm,Mexican bean beetle [5],20%
same,mortality at 156 ppm,Mexican bean beetle [5],89%
same,mortality at 1250 ppm,Mexican bean beetle [5],100%
same,mortality at 39 ppm,confused flour beetle [6],0%
same,mortality at 156 ppm,confused flour beetle [6],0%
same,mortality at 1250 ppm,confused flour beetle [6],0%
same,mortality at 39 ppm,southern armyworm [7],0%
same,mortality at 156 ppm,southern armyworm [7],0%
same,mortality at 39 ppm,pea aphid [8],0%
same,mortality at 156 ppm,pea aphid [8],0%
same,mortality at 39 ppm,confused flour beetle [9],0%
same,mortality at 156 ppm,confused flour beetle [9],0%
same,mortality at 1250 ppm,confused flour beetle [9],0%
same,mortality at 39 ppm,southern armyworm [10],0%
same,mortality at 156 ppm,southern armyworm [10],0%
same,mortality at 1250 ppm,southern armyworm [10],0%
same,mortality at 39 ppm,large milkweed bug,26%
same,mortality at 156 ppm,large milkweed bug,21%
same,mortality at 1250 ppm,large milkweed bug,60%
same,mortality at 39 ppm,Mexican bean beetle [11],45%
same,mortality at 156 ppm,Mexican bean beetle [11],100%
same,mortality at 39 ppm,Mexican bean beetle [12],95%
same,mortality at 156 ppm,Mexican bean beetle [12],94%
same,mortality at 1250 ppm,Mexican bean beetle [12],100%
same,mortality at 39 ppm,pea aphid [13],0%
same,mortality at 156 ppm,pea aphid [13],0%
same,mortality at 1250 ppm,pea aphid [13],0%
same,mortality at 39 ppm,twospotted spider mite [14],4%
same,mortality at 156 ppm,twospotted spider mite [14],1%

# Reference: patent US4024277A, “Phosphoro-aminosulfenyl derivatives of benzofuran carbamates” (priority 1975, dated 1977)
